Reference: PMC8119466, “A screen of FDA-approved drugs identifies inhibitors of protein tyrosine phosphatase 4A3 (PTP4A3 or PRL-3)” (Scientific Reports, 2021)
Where a name gives a salt, the structure may show the parent alone. Read-outs that look alike come from different tables or passages of the source.

Key:
Assay type in all cases: biochemical
[1] = target: T1, recombinant PRL-2 (Homo sapiens, UniProt Q12974); assay: In vitro phosphatase assay (DiFMUP hydrolysis), PRL-2;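 also: PRL-2 activity read as DiFMUP hydrolysis after 20 min at room temperature with drug, enzyme first pre-reduced at 4 °C for 20 min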
T1 construct: 6xHis (N, cleaved yes); made in house; host or cells: E. coli One Shot BL21 Star
T1 sequence (Q12974 1-167): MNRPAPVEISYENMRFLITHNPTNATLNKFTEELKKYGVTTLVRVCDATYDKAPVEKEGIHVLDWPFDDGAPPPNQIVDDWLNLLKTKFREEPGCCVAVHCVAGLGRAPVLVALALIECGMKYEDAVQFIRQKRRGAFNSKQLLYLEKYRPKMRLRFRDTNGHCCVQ
Protocol: Briefly, protein was diluted in reaction buffer and allowed to incubate at 4 °C for 20 min to allow for full reduction of the active site. DiFMUP, drug, and protein were added, and plates were incubated for 20 min at room temperature. Fluorescence intensities were measured on a Cytation 5 plate reader (Biotek) at an EX:360 nm and EM:460 nm. […] Inhibition selectivity for PRLs over a panel of other phosphatases was determined using PhosphataseProfiler (Eurofins, Cat # PP260).

[2] = target: T2, recombinant PRL-3 (Homo sapiens, UniProt O75365); assay: In vitro phosphatase assay (DiFMUP hydrolysis), PRL-3; also: test concentration or dose not given here
T2 construct: 6xHis (N, cleaved yes); made in house; host or cells: E. coli One Shot BL21 Star

[3] = target: T3, recombinant PRL-1 (Homo sapiens, UniProt Q93096); assay: In vitro phosphatase assay (DiFMUP hydrolysis), PRL-1; also: test concentration or dose not given here
T3 construct: 6xHis (N, cleaved yes); made in house; host or cells: E. coli One Shot BL21 Star
T3 sequence (Q93096 1-173): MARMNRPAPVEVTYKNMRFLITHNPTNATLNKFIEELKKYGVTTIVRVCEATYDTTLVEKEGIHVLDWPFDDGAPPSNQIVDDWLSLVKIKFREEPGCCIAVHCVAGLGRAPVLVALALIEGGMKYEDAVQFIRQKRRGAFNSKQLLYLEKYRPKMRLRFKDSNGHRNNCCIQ

[4] = FDA-approved drug screen, compared to DMSO
[5] = FDA-approved drug screen, activity compared to DMSO

T2 sequence (O75365 whole entry): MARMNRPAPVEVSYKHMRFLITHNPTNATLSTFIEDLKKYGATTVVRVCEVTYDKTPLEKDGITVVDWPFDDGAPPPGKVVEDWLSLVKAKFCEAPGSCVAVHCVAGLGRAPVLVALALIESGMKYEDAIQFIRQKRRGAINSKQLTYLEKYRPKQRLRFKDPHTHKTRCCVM

Row | Compound | % Phosphatase Activity (compared to DMSO) PRL-2 [1, 4] | % Phosphatase Activity (compared to DMSO) PRL-3 [2, 4] | % Phosphatase Activity (compared to DMSO) PRL-1 [3, 4] | other results
1 | CC(C)CN(C[C@@H](O)[C@H](Cc1ccccc1)NC(=O)O[C@H]1CCOC1)S(=O)(=O)c1ccc(N)cc1 [Amprenavir] | 81% | 77% | 96% | 
2 | OCC(CO)N[C@H]1C[C@](O)(CO)[C@@H](O)[C@H](O)[C@H]1O [Voglibose] |  |  |  | % Phosphatase Activity (compared to DMSO) PRL-2 [1, 5]: 104%; % Phosphatase Activity (compared to DMSO) PRL-3 [2, 5]: 75%; % Phosphatase Activity (compared to DMSO) PRL-1 [3, 5]: 98%
3 | Nc1ccc(S(=O)(=O)c2ccc(N)cc2)cc1 [Dapson] | 100% | 75% | 89% | 
4 | CNC1CCCN(c2c(F)cc3c(=O)c(C(=O)O)cn(C4CC4)c3c2OC)C1 (stereo not drawn) [Balofloxacin] | 411% | 123% | 282% | 
5 | CCCc1cc(=O)[nH]c(=S)[nH]1 [Propylthiouracil] |  |  |  | % Phosphatase Activity (compared to DMSO) PRL-2 [1]: 93%; % Phosphatase Activity (compared to DMSO) PRL-3 [2]: 91%; % Phosphatase Activity (compared to DMSO) PRL-1 [3]: 94%
6 | C[N+]1(C)[C@@H]2CC[C@H]1C[C@@H](OC(=O)C(O)c1ccccc1)C2 (stereo partly drawn) [Homatropine Methylbromide] | 100% | 95% | 107% | 
7 | Oc1c(Cl)cc(Cl)c2cccnc12 [Chloroxine] | 111% | 86% | 90% | 
8 | CC(C)(C)CC(C)(C)c1ccc(O)c(Cc2ccc(Cl)cc2Cl)c1 [Clofoctol] | 87% | 83% | 91% | 
9 | CCCN(CCC)CCc1cccc2c1CC(=O)N2 [Ropinirole HCl] | 122% | 78% | 103% | 
10 | O=C1[C@H](CC[C@H](O)c2ccc(F)cc2)[C@@H](c2ccc(O)cc2)N1c1ccc(F)cc1 [Ezetimibe] | 82% | 80% | 100% | 
11 | O.S=c1[nH]cnc2nc[nH]c12 [6-Mercaptopurine (6-MP) Monohydrate] | 108% | 85% | 95% | 
12 | COC(=O)Nc1nc2ccc([S+]([O-])c3ccccc3)cc2[nH]1 (stereo not drawn) [Oxfendazole] | 102% | 92% | 84% | 
13 | COc1cc(O)c(C(=O)c2ccccc2)cc1S(=O)(=O)O [Sulisobenzone] |  |  |  | % Phosphatase Activity (compared to DMSO) PRL-2 [1, 5]: 95%; % Phosphatase Activity (compared to DMSO) PRL-3 [2, 5]: 81%; % Phosphatase Activity (compared to DMSO) PRL-1 [3, 5]: 91%
14 | CCN(CCCc1ccccc1)CCCc1ccccc1 [Alverine Citrate] | 107% | 95% | 97% | 
15 | CCC(NC(C)C)C(O)c1ccc(O)c(O)c1 (stereo not drawn) [Isoetharine Mesylate] | 98% | 93% | 103% | 
16 | Nc1ccn([C@@H]2O[C@H](CO)[C@@H](O)C2(F)F)c(=O)n1 [Gemcitabine] | 100% | 77% | 109% | 
17 | COC(=O)N/N=C/c1c[n+]([O-])c2ccccc2[n+]1[O-] [Carbadox] | 103% | 99% | 96% | 
18 | OC(CCN1CCCC1)(c1ccccc1)C1CCCCC1 (stereo not drawn) [Procyclidine HCl] | 118% | 95% | 112% | 
19 | COc1ccc(/C=C\c2cc(OC)c(OC)c(OC)c2)cc1OP(=O)([O-])[O-].[Na+].[Na+] | 76% | 109% | 88% | 
20 | C=C1/C(=C\C=C2/CCC[C@]3(C)[C@@H]([C@H](C)CCCC(C)C)CC[C@@H]23)C[C@@H](O)C[C@@H]1O [Alfacalcidol] | 82% | 75% | 99% | 
21 | NC12CC3CC(CC(C3)C1)C2 [Amantadine HCl] | 127% | 88% | 117% | 
22 | O=S(=O)(O)c1cc(O)ccc1O [Ethamsylate] | 99% | 71% | 96% | 
23 | Cn1cc[nH]c1=S [Methimazole] | 97% | 82% | 104% | 
24 | C[C@]12Cc3c[nH]nc3C[C@@H]1CC[C@@H]1[C@@H]2CC[C@@]2(C)[C@H]1CC[C@]2(C)O [Stanozolol] |  |  |  | % Phosphatase Activity (compared to DMSO) PRL-2 [1]: 84%; % Phosphatase Activity (compared to DMSO) PRL-3 [2]: 93%; % Phosphatase Activity (compared to DMSO) PRL-1 [3]: 89%
25 | CC[C@H]1OC(=O)[C@H](C)[C@@H](O[C@H]2C[C@@](C)(OC)[C@@H](O)[C@H](C)O2)[C@H](C)[C@@H](O[C@@H]2O[C@H](C)C[C@H](N(C)C)[C@H]2O)[C@](C)(O)C[C@@H](C)/C(=N\OCOCCOC)[C@H](C)[C@@H](O)[C@]1(C)O [Roxithromycin] | 105% | 70% | 93% | 
26 | Cl.Cn1c(CCCC(=O)O)nc2cc(N(CCCl)CCCl)ccc21 [Bendamustine HCl] | 128% | 79% | 122% | 
27 | CC[C@H]1OC(=O)C[C@@H](O)[C@H](C)[C@@H](O[C@@H]2O[C@H](C)[C@@H](O[C@H]3C[C@@](C)(O)[C@@H](O)[C@H](C)O3)[C@H](N(C)C)[C@H]2O)[C@@H](CC=O)C[C@@H](C)C(=O)/C=C/C(C)=C/[C@@H]1CO[C@@H]1O[C@H](C)[C@@H](O)[C@@H](OC)[C@H]1OC.O=C(O)C(O)C(O)C(=O)O [Tylosin tartrate] |  |  |  | % Phosphatase Activity (compared to DMSO) PRL-2 [1, 5]: 93%; % Phosphatase Activity (compared to DMSO) PRL-3 [2, 5]: 81%; % Phosphatase Activity (compared to DMSO) PRL-1 [3, 5]: 95%
28 | Cc1c(OCC(F)(F)F)ccnc1C[S@@+]([O-])c1nc2ccccc2[nH]1 [Dexlansoprazole] | 100% | 93% | 95% | 
29 | CN1CCN(c2c(F)cc3c(=O)c(C(=O)O)cn4c3c2OCN4C)CC1 [Marbofloxacin] | 386% | 180% | 345% | 
30 | N[C@@H](CC(=O)N1CCn2c(nnc2C(F)(F)F)C1)Cc1cc(F)c(F)cc1F [Sitagliptin phosphate monohydrate] |  |  |  | % Phosphatase Activity (compared to DMSO) PRL-2 [1, 5]: 120%; % Phosphatase Activity (compared to DMSO) PRL-3 [2, 5]: 89%; % Phosphatase Activity (compared to DMSO) PRL-1 [3, 5]: 117%
